This note sets out measurements from ChEMBL document CHEMBL1123870, “Limited nerve impulse blockade by "leashed" local anesthetics” (1987).

This assay can be described thus: Tonic inhibition of compound action potential by 50% was determined in the absence of avidin in desheathed frog sciatic nerves. The assay is classed as functional. The following applies: Amphibia, Sciatic nerve; read-out: ED50 (the source's name).
Turning to `CCCCN(C(=O)CCCC[C@H]1SCC2NC(=O)NC21)c1ccc(C(=O)OCCN(C)C)cc1` (some centres not stated), the EC50 was 1500 µM.

Take `CCN(CC)CCOC(=O)c1ccc(NC(=O)OCCOCCOCCO)cc1`: the EC50 turned out to be 3200 µM.

Regarding `CCN(CC)CCOC(=O)c1ccc(NC(=O)CCCC[C@H]2SCC3NC(=O)NC32)cc1` (some centres not stated), the EC50 worked out at 4200 µM.

For the molecule `CCN(CC)CCOC(=O)c1ccc(NC(=O)OCCOCCOCCOCCOCCOCCO)cc1`, the EC50 came to 6600 µM.

In the case of `CCN(CC)CCOC(=O)c1ccc(NC(=O)OCCOCCOCCOC(=O)CCCC[C@H]2SCC3NC(=O)NC32)cc1` (some centres not stated), the EC50 was 2400 µM.

For the molecule `CCN(CC)CCOC(=O)c1ccc(N)cc1` [PROCAINE], the EC50 was 1300 µM.

As for `CCCCNc1ccc(C(=O)OCCN(C)C)cc1` [TETRACAINE], the EC50 was 12 µM.
